The source of these data is patent US5407961A, “α-substituted benzenemethanamine derivatives and pharmaceutical use” (Janssen Pharmaceutica N.V., priority 1991, dated 1995).

One data set in a line: in vitro. It counts as cell-based. Conditions: human, mt-4 cells. Here is the method: (§1) A rapid, sensitive and automated assay procedure was used for the in-vitro evaluation of anti-HIV agents. An […] T4-cell line, MT-4, which was previously shown (Koyanagi et al., Int. J. Cancer, 36, 445-451, 1985) to be highly susceptible to and permissive for HIV infection, served as the target cell line. Inhibition of the HIV-induced cytopathic effect was used as the end point. The viability of both HIV- and mock-infected cells was assessed spectrophotometrically via the in-situ reduction of 3-(4,5-dimethylthiazol-2-yl)-2,5-diphenyltetrazolium bromide (MTT). The 50% cytotoxic dose (CD50 in μg/ml) was defined as the concentration of compound that reduced the absorbance of the mock-infectedcontrol sample by 50%. The percent protection achieved by the compound in HIV-infected cells was calculated by the following formula: [formula] whereby (ODT)HIV is the optical density measured with a given concentration of the test compound in HIV-infected cells; (ODC)HIV is the optical density measured for the control untreated HIV-infected cells; (ODC)MOCK is the optical density measured for the control untreated mock-infected cells; all optical density values were determined at 540 nm. The dose achieving 50% protection according to the above formula was defined as the 50% effective dose (ED50 in μg/ml). The ratio of CD50 to ED50 was defined as the selectivity index (SI).

Another data set relates to HIV-1. Description: in-vitro anti-HIV assay: inhibition of the HIV-induced cytopathic effect in HIV-infected MT-4 cells (MTT). Format: cell-based, Human Immunodeficiency Virus. Particulars: for SI (selectivity index): ratio of CD50 to ED50. Here is the method: as §1
A general note: Protection from cytopathic effect is a common read-out in antiviral testing.

The mark [1] stands for this setting: Human immunodeficiency virus 1, MT4, dose achieving 50% protection in HIV-infected MT-4 cells, MTT, 540 nm, read-out: ED50 (50% effective dose).

≈ marks a conversion by molar mass, not a printed value. Where two headings read alike, the source gives them in different places.

Broadly, the CC50 is the concentration at which the toxic effect on the cells reaches its halfway point. Read a low CC50 as harm at low concentration. With `Cc1cc2c(c(NC(C(N)=O)c3c(Cl)cccc3Cl)c1)C(=O)CC2` (racemic) [Compound 1, (±)-2,6-dichloro-α-[(2,3-dihydro-6-methyl-3-oxo-1H-inden-4-yl)amino]benzene-acetamide], the CC50 in “in vitro” was 207 µg/mL (≈ 570 µM). In the data set on HIV-1 (setting [1]), the EC50 was determined as 0.0038 µg/mL (≈ 0.0105 µM). Also, the “SI (selectivity index)” value in the data set with HIV-1 worked out at 54560.
The matching figures for `NC(=O)C(Nc1cccc2c1C(=O)CO2)c1c(Cl)cccc1Cl` (racemic) [Compound 9, (±)-2,6-dichloro-α-[(2,3-dihydro-3-oxo-4-benzofuranyl)amino]benzeneacetamide]: 169 µg/mL (≈ 480 µM), 0.12 µg/mL (≈ 0.342 µM) and 1405.
The matching figures for `CC(=O)c1ccccc1NC(C)c1c(Cl)cccc1Cl` (racemic) [Compound 10, (±)-1-[2-[[1-(2,6-dichlorophenyl)ethyl]amino]phenyl]ethanone]: 5 µg/mL (≈ 16.2 µM), 0.022 µg/mL (≈ 0.0714 µM) and 227.
Regarding `O=[N+]([O-])c1ccccc1NC(CO)c1c(Cl)cccc1Cl` (racemic) [Compound 12, (±)-2,6-dichloro-β-(2-nitrophenyl)amino]benzeneethanol], the CC50 in “in vitro” was found to be 4.3 µg/mL (≈ 13.1 µM). Also, in the data set with HIV-1 (setting [1]), the EC50 was determined as 0.18 µg/mL (≈ 0.55 µM). For the same compound, the “SI (selectivity index)” value in the data set with HIV-1 was found to be 25.
The matching figures for `CC(=O)c1ccccc1NC(c1c(Cl)cccc1Cl)C1CC1` (racemic) [Compound 14, (±)-1-[2-[[cyclopropyl-(2,6-dichlorophenyl)methyl]amino]phenyl]ethanone]: 4.1 µg/mL (≈ 12.3 µM), 0.15 µg/mL (≈ 0.449 µM) and 27.
Taken in the same sequence, the figures for `CC(=O)c1cc2c(cc1NC(C(N)=O)c1c(Cl)cccc1Cl)CCC2` (stereo not drawn) [Compound 5] were 10 µg/mL (≈ 26.5 µM), 0.2 µg/mL (≈ 0.53 µM) and 50.
Taken in the same sequence, the figures for `NC(=O)C(Nc1cc(Cl)cc2c1OCC2)c1c(Cl)cccc1Cl` (stereo not drawn) [Compound 6] were 0.87 µg/mL (≈ 2.34 µM), 0.079 µg/mL (≈ 0.213 µM) and 11.
With `NC(=O)C(Nc1cccc2ccc[n+]([O-])c12)c1c(Cl)cccc1Cl` (stereo not drawn) [Compound 7], the CC50 in the data set “in vitro” is 53 µg/mL (≈ 146 µM). Also, the EC50 in the data set with HIV-1 (Human immunodeficiency virus 1, MT4, read-out: ED50 (50% effective dose)) turned out to be 0.047 µg/mL (≈ 0.13 µM). Also, the “SI (selectivity index)” value in the data set on HIV-1 was determined as 3255.
For the compound `CCC(Nc1ccccc1C(C)=O)c1c(Cl)cccc1Cl` (stereo not drawn) [Compound 11, 1-[2-[[1-(2,6-dichlorophenyl)propyl]amino]phenyl]ethanone], in “in vitro”, the cytotoxic concentration (CC50) was 6.9 µg/mL (≈ 21.4 µM). Also, in the data set with HIV-1 (setting [1]), the EC50 was 0.52 µg/mL (≈ 1.61 µM). Also, in the data set on HIV-1, the “SI (selectivity index)” value is 13.
Taken in the same sequence, the figures for `CC(Nc1ccccc1[N+](=O)[O-])c1c(Cl)cccc1Cl` (stereo not drawn) [Compound 13, 2,6-dichloro-α-methyl-N-(2-nitrophenyl)benzenemethanamine] were 0.13 µg/mL (≈ 0.418 µM), 0.021 µg/mL (≈ 0.0675 µM) and 6.
